# Data reported in patent US20070249670A1, “Glycogen Phosphorylase Inhibitor Compounds and Pharmaceutical Compositions Thereof” (SMITHKLINE BEECHAM CORPORATION, priority 2004, published 2007).
# Structures can show the parent of a compound that is named as a salt.
# Molecular target: T1, human liver glycogen phosphorylase a (HLGPa) (Homo sapiens, UniProt P06737)
# T1 construct: creating a full-length cDNA fused at the 5′ end to codons for methionine-glycine-alanine-histidine; 6xHis tag (leader Met-Gly-Ala-His6-Gly-Gly) (N); made in house; host or cells: E. coli (bacterial expression plasmid pTXK1007LTev)
# T1 sequence (P06737 2-847 limits assumed): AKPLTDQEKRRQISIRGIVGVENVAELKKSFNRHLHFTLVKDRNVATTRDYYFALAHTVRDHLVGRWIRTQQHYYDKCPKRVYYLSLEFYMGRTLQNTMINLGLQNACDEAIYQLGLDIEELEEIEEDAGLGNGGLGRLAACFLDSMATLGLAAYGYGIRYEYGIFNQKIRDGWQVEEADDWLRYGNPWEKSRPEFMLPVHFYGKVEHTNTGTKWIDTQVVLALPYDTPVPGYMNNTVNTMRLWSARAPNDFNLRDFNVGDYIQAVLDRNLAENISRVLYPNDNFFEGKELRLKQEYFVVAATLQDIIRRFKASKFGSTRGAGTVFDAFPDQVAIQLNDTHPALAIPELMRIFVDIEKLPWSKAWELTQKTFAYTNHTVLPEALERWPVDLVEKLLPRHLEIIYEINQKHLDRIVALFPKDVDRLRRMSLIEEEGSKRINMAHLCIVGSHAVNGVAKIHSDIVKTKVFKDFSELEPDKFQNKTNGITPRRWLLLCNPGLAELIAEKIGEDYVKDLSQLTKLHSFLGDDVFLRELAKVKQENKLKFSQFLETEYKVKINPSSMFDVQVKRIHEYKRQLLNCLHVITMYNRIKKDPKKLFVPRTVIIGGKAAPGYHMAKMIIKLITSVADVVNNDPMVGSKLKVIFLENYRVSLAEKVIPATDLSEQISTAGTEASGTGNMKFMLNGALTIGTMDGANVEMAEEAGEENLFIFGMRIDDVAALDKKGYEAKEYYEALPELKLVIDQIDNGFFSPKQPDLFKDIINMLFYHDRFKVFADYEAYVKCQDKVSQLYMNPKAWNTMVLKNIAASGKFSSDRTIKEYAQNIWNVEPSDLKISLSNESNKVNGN
# Test: Human liver glycogen phosphorylase a enzymatic activity assay (coupled, fluorescent resorufin readout, with and without 10 mM glucose)
# Assay type: biochemical
# [1] = human liver glycogen phosphorylase a enzymatic activity assay
# [2] = human liver glycogen phosphorylase a, table does not say whether with or without 10 mM glucose
SMILES,IC50 [1] [nM],IC50 [2] [nM]
"O=C(Nc1ccccc1Cl)Nc1cc2ccccc2cc1C(=O)N[C@@H](Cc1cnc[nH]1)C(=O)O [Example 56, N-[3-({[(2-chlorophenyl)amino]carbonyl}amino)-2-naphthoyl]-L-histidine trifluoroacetate]",3080,
"COc1cc(NC(=O)Nc2c(C)cccc2Cl)c(C(=O)N[C@@H](CC(C)C)C(=O)O)cc1OC [Example 69, N-[2-({[(2-chloro-6-methylphenyl)amino]carbonyl}amino)-4,5-dimethoxybenzoyl]-L-leucine]",13800,
"Cc1cccc(C)c1NC(=O)Nc1cc2ccccc2cc1C(=O)N[C@H](C(=O)O)[C@@H](C)O [Example 22, N-[3-({[(2,6-dimethylphenyl)amino]carbonyl}amino)-2-naphthoyl]-L-threonine]",1080,
"COc1cc(NC(=O)Nc2c(C)cccc2C)c(C(=O)N[C@H](C(=O)O)C2CCCCC2)cc1OC [Example 117, (2S)-cyclohexyl{[2-({[(2,6-dimethylphenyl)amino]carbonyl}amino)-4,5-dimethoxybenzoyl]amino}acetic acid]",14700,
"Cc1cc(C)c(NC(=O)Nc2cc3ccccc3cc2C(=O)NC2(C(=O)O)CCC(NCc3ccccc3)CC2)c(C)c1 (stereo not drawn) [Example 295, 4-[(phenylmethyl)amino]-1-({[3-({[(2,4,6-trimethylphenyl)amino]carbonyl}amino)-2-naphthalenyl]carbonyl}amino)cyclohexanecarboxylic acid]",,5560
"Cc1cccc(Cl)c1NC(=O)Nc1cc2ccccc2cc1C(=O)NCC(=O)O [Example 85, N-[3-({[(2-chloro-6-methylphenyl)amino]carbonyl}amino)-2-naphthoyl]glycine]",570,
"Cc1ccccc1NC(=O)Nc1cc2ccccc2cc1C(=O)N[C@@H](Cc1ccccc1)C(=O)O [Example 45, N-[3-({[(2-methylphenyl)amino]carbonyl}amino)-2-naphthoyl]-L-phenylalanine]",16900,
"O=C(Nc1sc(Br)cc1C(=O)O)Nc1c(Cl)cccc1Cl [Example 413, 5-bromo-2-({[(2,6-dichlorophenyl)amino]carbonyl}amino)-3-thiophenecarboxylic acid]",10600,
"O=C(Nc1cc2ccccc2cc1C(=O)NC1(C(=O)O)CCCCC1)Nc1c(Cl)cc(Cl)cc1Cl [Example 281, 1-({[3-({[(2,4,6-trichlorophenyl)amino]carbonyl}amino)-2-naphthalenyl]carbonyl}amino)cyclohexanecarboxylic acid]",,1620
"CC(C)C[C@H](NC(=O)c1c(NC(=O)Nc2c(Cl)cccc2Cl)sc2c1CCCC2)C(=O)O [Example 131, N-{[2-({[(2,6-dichlorophenyl)amino]carbonyl}amino)-4,5,6,7-tetrahydro-1-benzothien-3-yl]carbonyl}-L-leucine]",9960,
"COc1ccc(-c2ccc(C(=O)N[C@H](C(=O)O)C3CCCCC3)c(NC(=O)Nc3c(Cl)cc(OC(F)(F)F)cc3Cl)c2)cc1 [Example 215, (2S)-Cyclohexyl({[3-{[({2,6-dichloro-4-[(trifluoromethyl)oxy]phenyl}amino)carbonyl]amino}-4′-(methyloxy)-4-biphenylyl]carbonyl}amino)ethanoic acid]",,9
"CC[C@H](C)[C@H](NC(=O)c1c(NC(=O)Nc2c(Cl)cccc2Cl)sc2c1CCCC2)C(=O)O [Example 129, N-{[2-({[(2,6-dichlorophenyl)amino]carbonyl}amino)-4,5,6,7-tetrahydro-1-benzothien-3-yl]carbonyl}-L-isoleucine]",7970,
"Cc1cccc(Cl)c1NC(=O)Nc1sc2c(c1C(=O)N[C@@H](CC(=O)O)C(=O)O)CCCC2 [Example 134, N-{[2-({[(2-chloro-6-methylphenyl)amino]carbonyl}amino)-4,5,6,7-tetrahydro-1-benzothien-3-yl]carbonyl}-L-aspartic acid]",3660,
"COc1cc(NC(=O)Nc2c(C)cccc2C)c(C(=O)N[C@@H](Cc2c[nH]c3ccccc23)C(=O)O)cc1OC [Example 82, N-[2-({[(2,6-dimethylphenyl)amino]carbonyl}amino)-4,5-dimethoxybenzoyl]-L-tryptophan trifluoroacetate]",9410,

# More lines, in order of falling IC50 [1], values ahead:
IC50 [1] [nM],IC50 [2] [nM],SMILES
540,,"O=C(Nc1cc2ccccc2cc1C(=O)N[C@@H](CC1CCCCC1)C(=O)O)Nc1c(Cl)cccc1Cl [Example 146, 3-cyclohexyl-N-{[3-({[(2,6-dichlorophenyl)amino]carbonyl}amino)-2-naphthalenyl]carbonyl}-L-alanine]"
330,,"O=C(Nc1cc(Cl)ccc1C(=O)N[C@H](C(=O)O)C1CCCCC1)Nc1c(Cl)cc(Cl)cc1Cl [Example 171, (2S)-({[4-Chloro-2-({[(2,4,6-trichlorophenyl)amino]carbonyl}amino)phenyl]carbonyl}amino)(cyclohexyl)-ethanoic acid]"
250,,"COc1ccc(-c2cc(NC(=O)Nc3c(C)cc(C)cc3C)c(C(=O)NC3(C(=O)O)CCC3)s2)cc1 [Example 450, 1-({[5-[4-(methyloxy)phenyl]-3-({[(2,4,6-trimethylphenyl)amino]carbonyl}amino)-2-thienyl]carbonyl}amino)cyclobutanecarboxylic acid]"
94,,"Cc1cccc(C)c1NC(=O)Nc1cc(Cl)c(Cl)cc1C(=O)N[C@H](C(=O)O)C1CCCCC1 [Example 180, (2S)-Cyclohexyl({[4,5-dichloro-2-({[(2,6-dimethylphenyl)amino]carbonyl}amino)phenyl]carbonyl}amino)ethanoic acid]"
80,,"COc1ccc(-c2cc(NC(=O)Nc3c(Cl)cc(OC(F)(F)F)cc3Cl)c(C(=O)N[C@H](C(=O)O)C3CCCCC3)s2)cc1 [Example 433, (2S)-cyclohexyl[({3-{[({2,6-dichloro-4-[(trifluoromethyl)oxy]phenyl}amino)carbonyl]amino}-5-[4-(methyloxy)phenyl]-2-thienyl}carbonyl)amino]ethanoic acid]"
74,,"Cc1cccc(C)c1NC(=O)Nc1cc(-c2ccc(F)c(F)c2)ccc1C(=O)N[C@H](C(=O)O)C1CCCCC1 [Example 188, (2S)-Cyclohexyl({[3-({[(2,6-dimethylphenyl)amino]carbonyl}amino)-3′,4′-difluoro-4-biphenylyl]carbonyl}amino)ethanoic acid]"
51,,"CCc1cc(C)c(NC(=O)Nc2cc(F)ccc2C(=O)N[C@H](C(=O)O)C2CCCCC2)c(C)c1 [Example 475, (2S)-cyclohexyl({[2-({[(4-ethyl-2,6-dimethylphenyl)amino]carbonyl}amino)-4-fluorophenyl]carbonyl}amino)ethanoic acid]"
47,,"COc1ccc(-c2cc(NC(=O)Nc3c(C)cc(C)cc3C)c(C(=O)NC3(C(=O)O)CCCC3)s2)cc1 [Example 451, 1-({[5-[4-(methyloxy)phenyl]-3-({[(2,4,6-trimethylphenyl)amino]carbonyl}amino)-2-thienyl]carbonyl}amino)cyclopentanecarboxylic acid]"
20,,"CCCCc1cc(C)c(NC(=O)Nc2cc(F)ccc2C(=O)N[C@H](C(=O)O)C2CCCCC2)c(C)c1 [Example 480, (2S)-({[2-({[(4-butyl-2,6-dimethylphenyl)amino]carbonyl}amino)-4-fluorophenyl]carbonyl}amino)(cyclohexyl)ethanoic acid]"
19,,Cc1cc(C2CC2)cc(C)c1NC(=O)Nc1c(C(=O)N[C@H](C(=O)O)C2CCCCC2)ccc2ccccc12 [Example 531]
